# Assays:
# [1] = tested on: HLA-DR2 (DRB1*1501) Tg mice, CD8-depleted splenocytes; assay type: cell-based, mouse
# [2] = tested on: HLA-A2.1 (HLA-A*0201) Tg mice, CD4-depleted splenocytes; assay type: cell-based, mouse
# [3] = target: HLA-A2.1 (HHD monochain) (human; murine); experiment: cell-based or functional assay
# [4] = target: HLA-DR2 (chimeric HLA-DRA1*0101/DRB1*1501 with I-E domains) (human; murine) (UniProt Q8BHN5); experiment: cell-based or functional assay
# UniProt Q8BHN5, sequence (Q8BHN5 whole entry, stated change not applied): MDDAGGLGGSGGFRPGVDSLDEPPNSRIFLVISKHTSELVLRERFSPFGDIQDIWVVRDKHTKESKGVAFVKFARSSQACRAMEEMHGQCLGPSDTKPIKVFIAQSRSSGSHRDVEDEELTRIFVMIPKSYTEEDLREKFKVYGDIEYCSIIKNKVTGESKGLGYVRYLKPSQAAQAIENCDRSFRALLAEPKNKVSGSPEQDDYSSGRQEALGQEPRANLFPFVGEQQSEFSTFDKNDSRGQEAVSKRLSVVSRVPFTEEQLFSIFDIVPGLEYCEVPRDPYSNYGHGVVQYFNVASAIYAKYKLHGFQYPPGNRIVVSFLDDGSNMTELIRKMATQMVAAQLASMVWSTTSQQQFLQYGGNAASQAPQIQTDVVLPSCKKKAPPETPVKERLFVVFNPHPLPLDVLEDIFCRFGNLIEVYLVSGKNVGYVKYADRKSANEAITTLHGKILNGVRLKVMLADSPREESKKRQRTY
Substance,"T cell activation of HLA transgenic mice (SFC/10^6) IFN-γ ELISpot, DR2 [1] [SFC/10^6]","T cell activation of HLA transgenic mice (SFC/10^6) IFN-γ ELISpot, A2 [2] [SFC/10^6]",other results
AAQRRGRIGRNPSQV [NS3 455-469],200 ± 27,–,–
ATPPGTSDPFPESNSPI [NS3 317-333],–,151 ± 18,–
CYGGPWKLQHKWNGQDEV [NS3 78-95],–,150 ± 17,–
DISWESDAEITGSSERV [NS2b 59-75],59 ± 12,–,–
DPFPESNSPISDLQTEI [NS3 324-340],–,117 ± 20,–
ECHTCIYNMMGKREKK [NS5 448-463],–,26 ± 7,–
EIPDVLNSLAVAWMILRA [NS2a 128-145],384 ± 125,–,–
EKVYTMDGEYRLRGEERK [NS3 515-532],95 ± 27,140 ± 24,–
EMGANFKASRVIDSRKSV [NS3 413-430],–,130 ± 15,–
ERKILRPRWIDARVYSDH [NS3 588-605],42 ± 4,–,–
ERKNFLELLRTADLPVWL [NS3 530-547],–,127 ± 10,–
EYRLRGEERKNFLELLR [NS3 523-539],160 ± 48,57 ± 11,–
GEFLLDLRPATAWSLYAV [NS4b 30-47],89 ± 21,–,–
GKTRRILPQIIKEAINRR [NS3 199-216],52 ± 6,–,–
GLFNPMILAAGLIACDPNR [NS2a 211-229],74 ± 23,–,–
GLTSTRMFLKVRESNTTE [NS1 161-178],134 ± 8,–,–
GQDEVQMIVVEPGKNVK [NS3 91-107],–,156 ± 11,–
GRIGRNPSQVGDEYCY [NS3 460-475],123 ± 4,–,–
GSVKEDRLCYGGPWKLQH [NS3 70-87],–,174 ± 13,–
GWLSCLSITWTLIKNMEK [NS4b 233-250],62 ± 6,–,–
IDPFQLGLLVVFLATQEV [NS2a 6-23],563 ± 41,–,–
IRYQTSAVPREHNGNEIV [NS3 241-258],–,127 ± 18,–
IVVEPGKNVKNVQTKPGV [NS3 98-115],–,145 ± 25,–
KVELGEAAAIFMTATPPG [NS3 304-321],–,94 ± 22,–
LAVAWMILRAITFTTTSNV [NS2a 136-154],98 ± 22,–,–
LQHKWNGQDEVQMIVV [NS3 85-100],–,72 ± 9,–

Substance,"T cell activation of HLA transgenic mice (SFC/10^6) IFN-γ ELISpot, DR2 [1] [SFC/10^6]","T cell activation of HLA transgenic mice (SFC/10^6) IFN-γ ELISpot, A2 [2] [SFC/10^6]",other results
LQTEIPDRAWNSGYEWI [NS3 336-352],–,167 ± 35,–
LSTKAACPTMGEAHNDKR [E 68-85],–,372 ± 242,–
MATFKIQPVFMVASFLKA [NS2a 80-97],289 ± 83,–,–
MFAAFVISGKSTDMWIER [NS2b 39-56],47 ± 18,–,–
MLRKKQITVLDLHPGAGK [NS3 183-200],55 ± 2,62 ± 24,–
NRRLRTAVLAPTRVVAA [NS3 214-230],146 ± 29,–,–
PAGFEPEMLRKKQITVL [NS3 176-192],59 ± 8,–,–
PIVDKNGDVIGLYGNGVI [NS3 138-155],–,159 ± 10,–
PQIIKEAINRRLRTAVLA [NS3 206-223],323 ± 21,108 ± 22,–
RAWNSGYEWITEYTGKTV [NS3 343-360],–,55 ± 21,–
REDQRGSGQVVTYALNTF [NS5 598-615],252 ± 41,–,–
SRNSTHEMYWVSRASGNV [NS5 212-229],168 ± 13,–,–
STKATRYLVKTESWILR [prM 114-130],101 ± 33,–,–
SWITQGLLGALLLWMGI [E 458-474],51 ± 4,–,–
TDVLRYVILVGAAFA [NS2a 52-66],516 ± 9,–,–
THTLWGDGILESDLIIPV [NS1 228-245],–,84 ± 47,–
TLTHRLMSPHRVPNYNLF [NS3 265-282],169 ± 16,150 ± 30,–
TVWFVPSVKMGNEIALCL [NS3 359-376],–,75 ± 44,–
VIGLYGNGVIMPNGSYI [NS3 146-162],–,58 ± 38,–
VKVLCPYMPKVIEKMELL [NS5 181-198],122 ± 40,–,–
VLAPTRVVAAEMAEALR [NS3 221-237],–,26 ± 4,–
VYRIMTRGLLGSYQAGA [NS3 22-38],155 ± 22,–,–
WNV E 68-85 peptide,–,–,IFN-γ ELISpot (SFC/10^6) [3]: 372 SFC/10^6
WNV E 450-467 peptide,–,–,IFN-γ ELISpot (SFC/10^6) [4]: 261 SFC/10^6; IFN-γ ELISpot (SFC/10^6) [3]: 205 SFC/10^6
WNV E 458-474 peptide,–,–,IFN-γ ELISpot (SFC/10^6) [4]: 51 SFC/10^6
WNV NS1 161-178 peptide,–,–,IFN-γ ELISpot (SFC/10^6) [4]: 134 SFC/10^6
